According to patent US9695168B2 (Incyte Corporation, priority 2014, dated 2017):

These compounds were tested against LSD1 (Homo sapiens (Human), UniProt O60341) (assay: LSD1 Histone Demethylase Biochemical Assay (LANCE LSD1/KDM1A demethylase assay)). Details: 1 nM LSD-1 enzyme, 1 hour preincubation at 25° C., 0.4 μM Biotin-labeled Histone H3 peptide substrate.
Description: LSD1 Histone Demethylase Biochemical Assay
LANCE LSD1/KDM1A demethylase assay-10 μL of 1 nM LSD-1 enzyme (ENZO BML-SE544-0050) in the assay buffer (50 mM Tris, pH 7.5, 0.01% Tween-20, 25 mM NaCl, 5 mM DTT) were preincubated for 1 hour at 25° C. with 0.8 μL compound/DMSO dotted in black 384 well polystyrene plates. […] Reactions were stopped by addition of 10 μL 1× LANCE Detection Buffer (PerkinElmer CR97-100) supplemented with 1.5 nM Eu-anti-unmodified H3K4 Antibody (PerkinElmer TRF0404), and 225 nM LANCE Ultra Streptavidin (PerkinElmer TRF102) along with 0.9 mM Tranylcypromine-HCl (Millipore 616431). After stopping the reactions plates were incubated for 30 minutes and read on a PHERAstar FS plate reader (BMG Labtech).
With `N#Cc1ccc(-c2cc(OC[C@@H]3CCNC3)c3cncn3c2-c2ccc(CN3CCOCC3)cc2)cc1` [Example 17, 4-{5-[4-(morpholin-4-ylmethyl)phenyl]-8-[(3R)-pyrrolidin-3-ylmethoxy]imidazo[1,5-a]pyridin-6-yl}benzonitrile] the IC50 was 50 to 100 nM.
`CN1CCC[C@@H](COc2cc(-c3ccc(C#N)cc3)c(-c3ccc4c(c3)CN(C)C4=O)n3cncc23)C1` [Example 154, 4-(5-(2-methyl-1-oxo-2,3-dihydro-1H-isoindol-5-yl)-8-{[(3R)-1-methylpiperidin-3-yl]methoxy}imidazo[1,5-a]pyridin-6-yl)benzonitrile] showed an IC50 of 100 to 500 nM.
Compound `Cc1ccc(-c2c(-c3ccc(F)cc3)cc(OC[C@@H]3CCNC3)c3cncn23)cc1` [Example 2, 6-(4-fluorophenyl)-5-(4-methylphenyl)-8-[(3R)-pyrrolidin-3-ylmethoxy]imidazo[1,5-a]pyridine] has an IC50 of 500 to 1000 nM.
`CN(C)C1CCN(c2nc(-c3ccc(C#N)cc3)c(-c3cnc4cccnc4c3)n3cncc23)CC1` [Example 55, 4-[8-[4-(dimethylamino)piperidin-1-yl]-5-(1,5-naphthyridin-3-yl)imidazo[1,5-a]pyrazin-6-yl]benzonitrile] showed an IC50 of 50 to 100 nM.
Work on `CNC(=O)c1ccc(-c2c(-c3ccc(C#N)cc3)nc(N3CCC(N(C)C)CC3)c3cncn23)cn1` [Example 141, 5-{6-(4-cyanophenyl)-8-[4-(dimethylamino)piperidin-1-yl]imidazo[1,5-a]pyrazin-5-yl}-N-methylpyridine-2-carboxamide] yielded an IC50 of 100 to 500 nM.
Work on `CN1C(=O)Cc2cc(-c3c(-c4ccc(C#N)cc4)nc(N4CCC(N(C)C)CC4)c4cncn34)ccc21` [Example 52, 4-[8-[4-(dimethylamino)piperidin-1-yl]-5-(1-methyl-2-oxo-2,3-dihydro-1H-indol-5-yl)imidazo[1,5-a]pyrazin-6-yl]benzonitrile] yielded an IC50 of 50 to 100 nM.
`CC(C)c1nc2cc(-c3c(-c4ccc(C#N)cc4)cc(OC[C@@H]4CCCN(C)C4)c4cncn34)cnc2n1C` [Example 157, (R)-4-(5-(2-isopropyl-3-methyl-3H-imidazo[4,5-b]pyridin-6-yl)-8-((1-methylpiperidin-3-yl)methoxy)imidazo[1,5-a]pyridin-6-yl)benzonitrile] was tested, and the IC50 was 100 to 500 nM.
Work on `CN1CCC[C@@H](COc2nc(-c3ccc(C#N)cc3)c(-c3ccc4c(c3)OCC(=O)N4C)n3cncc23)C1` [Example 25, 4-(5-(4-methyl-3-oxo-3,4-dihydro-2H-1,4-benzoxazin-7-yl)-8-{[(3R)-1-methylpiperidin-3-yl]methoxy}imidazo[1,5-a]pyrazin-6-yl)benzonitrile] yielded an IC50 of 50 to 100 nM.
`COC(=O)N(C)c1ccc(-c2c(-c3ccc(C#N)cc3)nc(OC[C@@H]3CCCN(C)C3)c3cncn23)cc1` [Example 46] showed an IC50 of 50 to 100 nM.
For `CN1CCC[C@@H](COc2nc(-c3ccc(C#N)cc3)c(-c3ccc4c(c3)CCC(=O)N4C)n3cncc23)C1` [Example 24, 4-(5-(1-methyl-2-oxo-1,2,3,4-tetrahydroquinolin-6-yl)-8-{[(3R)-1-methylpiperidin-3-yl]methoxy}imidazo[1,5-a]pyrazin-6-yl)benzonitrile], the IC50 was 100 to 500 nM.
Compound `CN1CCC[C@@H](COc2nc(-c3ccc(C#N)cc3)c(-c3ccc4c(c3)CC(=O)N4C)n3cncc23)C1` [Example 22, 4-(5-(1-methyl-2-oxo-2,3-dihydro-1H-indol-5-yl)-8-{[(3R)-1-methylpiperidin-3-yl]methoxy}imidazo[1,5-a]pyrazin-6-yl)benzonitrile] has an IC50 of 100 to 500 nM.
Compound `CN1CCC[C@@H](COc2cc(-c3ccc(C#N)cc3)c(-c3cnc4c(c3)nc(C3CC3)n4C)n3cncc23)C1` [Example 158, (R)-4-(5-(2-cyclopropyl-3-methyl-3H-imidazo[4,5-b]pyridin-6-yl)-8-((1-methylpiperidin-3-yl)methoxy)imidazo[1,5-a]pyridin-6-yl)benzonitrile] has an IC50 of 100 to 500 nM.
`CN1CCC[C@@H](COc2cc(-c3ccc(C#N)cc3)c(-c3ccc(C(C)(C)O)nc3)n3cncc23)C1` [Example 151, 4-(5-[6-(1-hydroxy-1-methylethyl)pyridin-3-yl]-8-{[(3R)-1-methylpiperidin-3-yl]methoxy}imidazo[1,5-a]pyridin-6-yl)benzonitrile] gave an IC50 of 100 to 500 nM.
Work on `CN1CCC[C@@H](COc2nc(-c3ccc(C#N)cc3)c(-c3ccc4c(c3)oc(=O)n4C)n3cncc23)C1` [Example 21, 4-(5-(3-methyl-2-oxo-2,3-dihydro-1,3-benzoxazol-6-yl)-8-{[(3R)-1-methylpiperidin-3-yl]methoxy}imidazo[1,5-a]pyrazin-6-yl)benzonitrile] yielded an IC50 of 50 to 100 nM.
Compound `CCN1CCC[C@@H](COc2cc(-c3ccc(C#N)cc3)c(-c3cnc4c(c3)ncn4C)n3cncc23)C1` [Example 66, (R)-4-(8-((1-ethylpiperidin-3-yl)methoxy)-5-(3-methyl-3H-imidazo[4,5-b]pyridin-6-yl)imidazo[1,5-a]pyridin-6-yl)benzonitrile] has an IC50 of 50 to 100 nM.
For `COc1ncc(-c2c(-c3ccc(C#N)cc3)nc(N3CCC(N(C)C)CC3)c3cncn23)cn1` [Example 150, 4-[8-[4-(dimethylamino)piperidin-1-yl]-5-(2-methoxypyrimidin-5-yl)imidazo[1,5-a]pyrazin-6-yl]benzonitrile], the IC50 was 100 to 500 nM.
`N#Cc1ccc(-c2cc(OC[C@@H]3CCNC3)c3cncn3c2-c2ccc(Cl)cc2)cc1` [Example 6, 4-{5-(4-chlorophenyl)-8-[(3R)-pyrrolidin-3-ylmethoxy]imidazo[1,5-a]pyridin-6-yl}benzonitrile] gave an IC50 of 50 to 100 nM.
`COC(=O)N(C)c1ccc(-c2c(-c3ccc(C#N)cc3)nc(OC[C@@H]3CCCN(C)C3)c3cncn23)cn1` [Example 49] was tested, and the IC50 was 100 to 500 nM.
In the case of `CC(O)c1c(F)cc(-c2c(-c3ccc(C#N)cc3)cc(OC[C@@H]3CCCN(C)C3)c3cncn23)cc1F` (stereo partly drawn) [Example 124, 4-(5-[3,5-difluoro-4-(1-hydroxyethyl)phenyl]-8-{[(3R)-1-methylpiperidin-3-yl]methoxy}imidazo[1,5-a]pyridin-6-yl)benzonitrile], the IC50 is reported as 50 to 100 nM.
Compound `CCc1ccc(-c2c(-c3ccc(C#N)cc3)cc(OC[C@@H]3CCCN(C)C3)c3cncn23)cn1` [Example 133, 4-(5-(6-ethylpyridin-3-yl)-8-{[(3R)-1-methylpiperidin-3-yl]methoxy}imidazo[1,5-a]pyridin-6-yl)benzonitrile] has an IC50 of 50 to 100 nM.
Work on `CC(O)CN1CCC[C@@H](COc2cc(-c3ccc(C#N)cc3)c(-c3cnc4c(c3)OCCO4)n3cncc23)C1` (stereo partly drawn) [Example 118, 4-(5-(2,3-dihydro[1,4]dioxino[2,3-b]pyridin-7-yl)-8-{[(3R)-1-(2-hydroxypropyl)piperidin-3-yl]methoxy}imidazo[1,5-a]pyridin-6-yl)benzonitrile] yielded an IC50 of 50 to 100 nM.
Work on `COCc1cc(-c2c(-c3ccc(C#N)cc3)cc(OC[C@@H]3CCCN(C)C3)c3cncn23)cnc1C` [Example 147, 4-(5-[5-(methoxymethyl)-6-methylpyridin-3-yl]-8-{[(3R)-1-methylpiperidin-3-yl]methoxy}imidazo[1,5-a]pyridin-6-yl)benzonitrile] yielded an IC50 of 50 to 100 nM.
`Cc1nn(C)c2ccc(-c3c(-c4ccc(C#N)cc4)nc(OC[C@@H]4CCCN(C)C4)c4cncn34)cc12` [Example 32, 4-(5-(1,3-dimethyl-1H-indazol-5-yl)-8-{[(3R)-1-methylpiperidin-3-yl]methoxy}imidazo[1,5-a]pyrazin-6-yl)benzonitrile] showed an IC50 of 50 to 100 nM.
`CN1CCC[C@@H](COc2cc(-c3ccc(C#N)cc3)c(-c3cnc4c(c3)OCC(=O)N4C)n3cncc23)C1` [Example 152, (R)-4-(5-(4-methyl-3-oxo-3,4-dihydro-2H-pyrido[3,2-b][1,4]oxazin-7-yl)-8-((1-methylpiperidin-3-yl)methoxy)imidazo[1,5-a]pyridin-6-yl)benzonitrile] showed an IC50 of 50 to 100 nM.
`COc1ncc(-c2c(-c3ccc(C#N)cc3)cc(OC[C@@H]3CCCN(C)C3)c3cncn23)cc1N` [Example 69, (R)-4-(5-(5-amino-6-methoxypyridin-3-yl)-8-((1-methylpiperidin-3-yl)methoxy)imidazo[1,5-a]pyridin-6-yl)benzonitrile] was tested, and the IC50 was 50 to 100 nM.
`CC(O)CN1CCC[C@@H](COc2cc(-c3ccc(C#N)cc3)c(-c3cnc4ccoc4c3)n3cncc23)C1` (stereo partly drawn) [Example 119, 4-(5-(furo[3,2-b]pyridin-6-yl)-8-(((3R)-1-(2-hydroxypropyl)piperidin-3-yl)methoxy)imidazo[1,5-a]pyridin-6-yl)benzonitrile] showed an IC50 of 50 to 100 nM.
`Cc1ncc(-c2c(-c3ccc(C#N)cc3)nc(N3CCC(N(C)C)CC3)c3cncn23)cc1C(F)F` [Example 140, 4-{5-[5-(difluoromethyl)-6-methylpyridin-3-yl]-8-[4-(dimethylamino)piperidin-1-yl]imidazo[1,5-a]pyrazin-6-yl}benzonitrile] showed an IC50 of 50 to 100 nM.
`CN1CCC[C@@H](COc2cc(-c3ccc(C#N)cc3)c(-c3cnc4ccoc4c3)n3cncc23)C1` [Example 60, (R)-4-(5-(furo[3,2-b]pyridin-6-yl)-8-((1-methylpiperidin-3-yl)methoxy)imidazo[1,5-a]pyridin-6-yl)benzonitrile] showed an IC50 of 50 to 100 nM.
In the case of `CN1CCC[C@@H](COc2nc(-c3ccc(C#N)cc3)c(-c3cnc4c(cnn4C)c3)n3cncc23)C1` [Example 27, 4-[8-{[(3R)-1-methylpiperidin-3-yl]methoxy}-5-(1-methyl-1H-pyrazolo[3,4-b]pyridin-5-yl)imidazo[1,5-a]pyrazin-6-yl]benzonitrile], the IC50 is reported as 50 to 100 nM.
`CCn1nnc2cc(-c3c(-c4ccc(C#N)cc4)cc(OC[C@@H]4CCCN(C)C4)c4cncn34)cnc21` [Example 117, 4-(5-(3-ethyl-3H-[1,2,3]triazolo[4,5-b]pyridin-6-yl)-8-{[(3R)-1-methylpiperidin-3-yl]methoxy}imidazo[1,5-a]pyridin-6-yl)benzonitrile] was tested, and the IC50 was 50 to 100 nM.
